From patent publication US10561681B2, “Antimetastatic 2H-selenopheno[3,2-h]chromenes, synthesis thereof, and methods of using same agents” (Latvian Institute of Organic Synthesis, priority 2016, dated 2020)
Values joined by “and” are separate entries in the source; they are usually repeats but may differ in a detail not shown here. Equal entries are not always repeated. Where two headings read alike, the source gives them in different places. Marks after values point to notes of the source that are not given here.

Tests used:
[1] = system: malignant tumor cells; experiment: In vitro cytotoxicity on monolayer tumor cell lines (panel, summary in words); type: cell-based; details: summary of Table 1
Description: Anticancer activity of selenopheno[h]chromenes was tested in vitro using cytotoxicity assay. Thus, monolayer tumor cell lines MDA-MB-435s (human melanoma), MCF-7 (human breast adenocarcinoma, estrogen-positive), MES-SA (human uterus sarcoma), HT-1080 (human fibrosarcoma), A549 (human lung carcinoma), SH-SY5Y (human neuroblastoma), CCL-8 (mouse sarcoma), MG-22A (mouse hepatoma), and HepG2 (human hepatocellular carcinoma) were cultured in standard medium DMEM (Dulbecco's modified Eagle's medium) (“Sigma”) supplemented with 10% fetal bovine serum (“Sigma”). About 2-9·10^4 cells/mL (depending on line nature) were placed in 96-well plates immediately after compounds were added to the wells. Untreated cells were used as a control. The plates were incubated for 72 h, 37° C., 5% CO2. The number of surviving cells was determined using 3-(4,5-dimethylthiazol-2-yl)-2,5-diphenyltetrazolinium bromide (MTT). MTT-test: after incubating culture medium was removed and 200 μL fresh medium with 10 mM HEPES was added in each well of the plate, than 20 μL MTT (2 mg/mL in HBSS) was added. After incubation (3 hr, 37° C., 5% CO2), the medium with MTT was removed and 200 μL DMSO were added at once to each sample. The samples were tested at 540 nm on Anthos HT II photometer.

[2] = Basal cytotoxicity test, Neutral Red Uptake (NRU) assay; type: cell-based; details: for LD50 at 24 h: mouse, po, acute oral LD50 calculated from 3T3 NRU IC50 by regression formula, read-out: Basal cytotoxicity Estimated* LD50; for IC50 at 24 h: normal mouse embryo fibroblasts, read-out: Cytotoxicity IC50, 3T3
Description: In parallel, the borderline concentration relevant to the highest tolerated dose has been determined for each compound using the NIH 3T3 (mouse embryo fibroblasts) cell line and the basal cytotoxicity obtained has then been used to predict the starting doses for in vivo acute oral LD50 values in rodents.
the Neutral Red Uptake (NRU) assay was performed according to the standard protocol of Stokes modified by the NICEATM-ECVAM validation study. The NRU cytotoxicity assay procedure is based on the ability of viable cells to incorporate and bind Neutral Red, a supravitally dye. Balb/c 3T3 (Mouse Swiss Albino embryo fibroblast) cells (9000 cells/well) were placed into 96-well plates for 24 h in Dulbecco's modified Eagle's (DMEM) medium containing 5% fetal bovine serum. The cells were then exposed to the test compounds over a range of […] concentrations (1000, 316, 100, 31, 10, 3, 1 μg/ml) for 24 h. Untreated cells were used as a control. After 24 h, the medium was removed from all plates. Then, 250 μL of Neutral Red solution were added (0.05 mg/mL NR in DMEM 24 h pre-incubated at 37° C. and then filtered before use through 0.22-μm syringe filter). Plates were incubated for 3 h and then cells were washed three times with PBS. The dye within viable cells was released by extraction with a mixture of acetic acid, ethanol and water (1:50:49). Absorbance of Neutral Red was measured using a spectrophotometer multiplate reader (TECAN, Infinite M1000) at 540 nm. The percentage of living cells was calculated using the formula: OD (treated cells)*100/OD (control cells). The IC50 values were calculated using the programme Graph Pad Prism® 3.0.
Data from the in vitro tests were used for estimating the starting dose for acute oral systemic toxicity tests in rodents. […] The value is recalculated to mg/kg and compounds are evaluated in accordance with four toxicity categories: category 1: LD50≤5 mg/kg (highly toxic); category 2: 5<LD50≤50 mg/kg (moderately toxic); category 3: 50<LD50≤300 mg/kg (slightly toxic); category 4: 300<LD50≤2 000 mg/kg (practically non-toxic).

[3] = system: A549 (human lung carcinoma); experiment: In vitro cytotoxicity, MTT test; type: cell-based; details: Homo sapiens, A549, 72 h, read-out: Cytotoxicity IC50, A549
Description: (§1) Anticancer activity of selenopheno[h]chromenes was tested in vitro using cytotoxicity assay. […] About 2-9·10^4 cells/mL (depending on line nature) were placed in 96-well plates immediately after compounds were added to the wells. Untreated cells were used as a control. The plates were incubated for 72 h, 37° C., 5% CO2. The number of surviving cells was determined using 3-(4,5-dimethylthiazol-2-yl)-2,5-diphenyltetrazolinium bromide (MTT). MTT-test: after incubating culture medium was removed and 200 μL fresh medium with 10 mM HEPES was added in each well of the plate, than 20 μL MTT (2 mg/mL in HBSS) was added. After incubation (3 hr, 37° C., 5% CO2), the medium with MTT was removed and 200 μL DMSO were added at once to each sample. The samples were tested at 540 nm on Anthos HT II photometer.

[4] = system: HT-1080 (human fibrosarcoma); experiment: In vitro cytotoxicity, MTT test; type: cell-based; details: read-out: Cytotoxicity IC50, HT-1080
Description: as §1

[5] = system: MCF-7 (human breast adenocarcinoma, estrogen-positive); experiment: In vitro cytotoxicity, MTT test; type: cell-based; details: read-out: Cytotoxicity IC50, MCF-7
Description: as §1

[6] = system: MG-22A (mouse hepatoma); experiment: In vitro cytotoxicity, MTT test; type: cell-based; details: 72 h, read-out: Cytotoxicity IC50, MG-22A
Description: as §1

[7] = system: HepG2 (human hepatocellular carcinoma); experiment: In vitro cytotoxicity, MTT test; type: cell-based; details: read-out: Cytotoxicity IC50, HepG2
Description: as §1

[8] = system: MES-SA (human uterus sarcoma); experiment: In vitro cytotoxicity, MTT test; type: cell-based; details: 72 h, read-out: Cytotoxicity IC50, MES-SA
Description: as §1

[9] = system: MDA-MB-435s (human melanoma); experiment: In vitro cytotoxicity, MTT test; type: cell-based; details: 72 h, read-out: Cytotoxicity IC50, MDA-MB-435s
Description: as §1

[10] = system: SH-SY5Y (human neuroblastoma); experiment: In vitro cytotoxicity, MTT test; type: cell-based; details: Homo sapiens, SH-SY5Y, 72 h, read-out: Cytotoxicity IC50, SHSY5Y
Description: as §1

[11] = system: CCL-8 (mouse sarcoma); experiment: In vitro cytotoxicity, MTT test; type: cell-based; details: 72 h, read-out: Cytotoxicity IC50, CCL-8
Description: as §1

[12] = system: 4T1 carcinoma cells; experiment: 4T1 model of lung metastasis (tail vein) in Balb/c mice; type: in vivo, mouse; details: for Spleen weight increase: 4T1 i.v., control with tumor +147%; for % of the total area occupied by metastases, % (control = 100) / % of the total area occupied by metastases, Mean ± SD: s.c., days 1, 4, 7, 9, 11, 14
Description: Compounds were administered s.c. at 1, 4, 7, 9, 11 and 14th days. 4T1 cells (10,000/0.1 ml PBS) were injected i.v. into syngeneic mice. The metastasis at day 16 are shown for each mouse, and averages are provided for illustration.
Balb/c mice were injected with 100,000 4T1 […] cancer cells into the tail vein and treatment started 24 hr later with subcutaneous (s.c.), intraperitoneal (i.p.) injections or oral administration (p.o.) of compounds according to the following scheme: 1, 4, 7, 9, 11 and 14th days in dose 20 or 40 mg/kg. Compounds were dissolved in DMSO and the solution were diluted by water (DMSO final concentration <1%). Mice in the control group were similarly given doses of 0.1 mL of water with DMSO. Twenty-one days later, all mice were anesthetized with ketamine/xylazine and euthanized, the mice were sacrificed spleens were excised from the mice and weighed. In each experiment, mice were weighed twice weekly.
(Lewis et al, Cancer Res, 2005, 65) Pulmonary metastases were enumerated by intra-tracheal injection of India ink (15% India Ink, 85% water, 3 drops NH4OH/100 ml). India ink injected lungs were washed in Feket's solution (300 ml 70% EtOH, 30 ml 37% formaldehyde, 5 ml glacial acetic acid) and then placed fresh Feket's solution overnight. […] White tumor nodules against a black lung background were measured.

SMILES | Cytotoxicity on cancer cell lines [1] | LD50 at 24 h [2] | IC50 at 24 h [2] | IC50 [3] | IC50 ([4]; HT-1080, 72 h) | IC50 ([5]; MCF7, 72 h) | IC50 [6] | IC50 ([7]; HepG2, 72 h) | IC50 [8] | IC50 [9] | IC50 [10] | IC50 ([3]; MTT, 72 h) | IC50 ([4]; HT-1080, MTT, 72 h) | IC50 ([5]; MCF7, MTT, 72 h) | IC50 ([6]; MTT) | IC50 ([7]; HepG2, MTT, 72 h) | IC50 ([8]; MTT) | IC50 ([9]; MTT) | IC50 ([10]; MTT) | IC50 ([11]; MTT) | further results
CN1CCN(Cc2[se]c3c(ccc4cc(C(=O)O)c(=O)oc43)c2Br)CC1.Cl [Compound I-15, 7-Bromo-8-/(4-methylpiperazin-1-yl/methyl)-2-oxo-2H-selenopheno[3,2-h]chromene-3-carboxylic acid hydrochloride] | low toxic to the cancer cell lines | 3200 µmol/kg and 1670 mg/kg | 192 ± 7 µM | > 192 µM | > 192 µM | > 192 µM | 186 ± 7 µM | > 192 µM | > 117 µM | > 122 µM | > 192 µM | – | – | – | – | – | – | – | – | – | IC50 [11]: > 122 µM; Spleen weight increase ([12]; dose 20 mg/kg): 55%; Spleen weight increase ([12]; dose 40 mg/kg): 14%; Prevention of formation of 4T1 carcinoma lung metastasis ([12]; five mice per group): 98%; % of the total area occupied by metastases, % (control = 100) ([12]; 20 mg/kg): 4* %; % of the total area occupied by metastases, Mean ± SD ([12]; 20 mg/kg, control 50 ± 33): 2 ± 2%; % of the total area occupied by metastases, % (control = 100) ([12]; 40 mg/kg): 1* %; % of the total area occupied by metastases, Mean ± SD ([12]; 40 mg/kg): 0 ± 1%
CCCCCCCCCCOC(=O)c1cc2ccc3c(Br)c(C4(O)CCCCC4)[se]c3c2oc1=O [Compound I-7] | – | > 3300 µmol/kg and > 2000 mg/kg | > 164 µM | – | – | – | – | – | – | – | – | > 164 µM | > 164 µM | 48 ± 13 µM | > 164 µM | 151 ± 6 µM | > 164 µM | 152 ± 9 µM | > 117 µM | 81 ± 2 µM | –
COCCN(CCOC)C(=O)c1cc2ccc3c(Br)c(C4=CCCCC4)[se]c3c2oc1=O [Compound I-21, 7-Bromo-8-(cyclohex-1-en-1-yl)-N,N-bis(2-methoxyethyl)-2-oxo-2H-selenopheno[3,2-h]chromene-3-carboxamide] | – | 700 µmol/kg and 384 mg/kg | 131 ± 7 µM | – | – | – | – | – | – | – | – | 61 ± 6 µM | 51 ± 1 µM | 92 ± 12 µM | 46 ± 6 µM | 51 ± 7 µM | 73 ± 3 µM | 76 ± 4 µM | 139 ± 6 µM | 100 ± 8 µM | –
O=C(c1cc2ccc3c(Br)c(C4=CCCCC4)[se]c3c2oc1=O)N1CCOCC1 [Compound I-20, 7-Bromo-8-(cyclohex-1-en-1-yl)-3-(morpholine-1-carbonyl)-2H-selenopheno[3,2-h]chromen-2-one] | – | 3000 µmol/kg and 1600 mg/kg | > 192 µM | – | – | – | – | – | – | – | – | 38 ± 5 µM | 92 ± 12 µM | 81 ± 7 µM | 117 ± 7 µM | 63 ± 6 µM | 61 ± 4 µM | 13 ± 1 µM | > 117 µM | 126 ± 4 µM | –
Cl.O=C(O)c1cc2ccc3c(Br)c(CN4CCOCC4)[se]c3c2oc1=O [Compound I-14, 7-Bromo-2-oxo-8-(morpholin-1-ylmethyl)-2H-selenopheno[3,2-h]chromene-3-carboxylic acid hydrochloride] | remained cytotoxicity on cancer cell lines | 1320 mg/kg and 2600 µmol/kg | 43 ± 2 µM | 51 ± 8 µM | 100 ± 6 µM | 95 ± 9 µM | 59 ± 2 µM | 106 ± 9 µM | 65 ± 6 µM | 156 ± 9 µM | 35 ± 9 µM | – | – | – | – | – | – | – | – | – | IC50 [11]: 79 ± 9 µM
COC(=O)c1cc2ccc3c(Br)c(C4=CCCC4)[se]c3c2oc1=O [Compound I-2, Methyl 7-bromo-8-(cyclopent-1-en-1-yl)-2-oxo-2H-selenopheno[3,2-h]chromene-3-carboxylate] | – | 500 µmol/kg and 194 mg/kg | > 235 µM | – | – | – | – | – | – | – | – | 122 ± 8 µM | 110 ± 12 µM | 281 ± 12 µM | > 235 µM | 197 ± 24 µM | 155 ± 3 µM | 142 ± 12 µM | > 117 µM | 82 ± 8 µM | –
